Test [1] has as its target T1, recombinant human LTA4 hydrolase (Homo sapiens, UniProt P09960).
T1 construct: A human LTA4 hydrolase full-length cDNA clone (NM_000895) was purchased from OriGene Technologies; made in house; host or cells: Escherichia coli BL21-AI
T1 sequence (P09960 1-611): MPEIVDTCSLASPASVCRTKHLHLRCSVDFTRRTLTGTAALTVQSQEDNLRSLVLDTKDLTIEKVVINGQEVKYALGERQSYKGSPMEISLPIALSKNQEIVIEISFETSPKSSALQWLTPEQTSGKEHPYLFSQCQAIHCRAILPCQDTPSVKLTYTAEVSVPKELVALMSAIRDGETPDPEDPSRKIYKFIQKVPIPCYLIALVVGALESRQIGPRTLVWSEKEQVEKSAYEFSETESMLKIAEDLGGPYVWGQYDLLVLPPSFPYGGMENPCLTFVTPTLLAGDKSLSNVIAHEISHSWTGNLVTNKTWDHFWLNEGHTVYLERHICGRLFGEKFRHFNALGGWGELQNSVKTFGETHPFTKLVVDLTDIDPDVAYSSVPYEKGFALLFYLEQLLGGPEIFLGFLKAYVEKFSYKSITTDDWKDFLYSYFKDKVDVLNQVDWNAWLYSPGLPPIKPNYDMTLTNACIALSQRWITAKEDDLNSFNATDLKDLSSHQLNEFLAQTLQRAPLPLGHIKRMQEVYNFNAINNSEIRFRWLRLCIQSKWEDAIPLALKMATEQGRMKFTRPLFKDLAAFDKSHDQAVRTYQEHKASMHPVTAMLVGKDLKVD
Nature of the test: In vitro assay testing inhibitory activity against purified recombinant human LTA4 hydrolase (LTB4 formed measured by LC-MS/MS). In kind it is biochemical. The note with it: purified recombinant human LTA4 hydrolase 200 nM, LTA4 2 μM, 120 sec at room temperature; read-out: AvgIC50.
Method: The compounds of the invention were incubated in a series of dilutions with 200 nM of recombinant enzyme in assay buffer (100 mM Tris-HCl, 100 mM NaCl, 5 mg/ml fatty-acid free BSA, 10% DMSO, pH 8.0) for 10 min at room temperature to allow binding between LTA4 hydrolase and the inhibitors. LTA4 was prepared by alkaline hydrolysis of LTA4 methyl ester (Biomol, Plymouth Meeting, Pa., or Cayman Chemicals, Ann Arbor, Mich.). A solution of 10 μg of the ester was dried under a nitrogen stream and redissolved in 60 μl of a solution of 80% acetone and 20% 0.25 M NaOH. After incubation for 40 min at room temperature the resulting approximately 500 mM tock of LTA4 was kept at −80° C. for no more than a few days prior to use.
Immediately before the assay, LTA4 was diluted to a concentration of 10 μM in assay buffer (without DMSO) and added to the reaction mixture to a final concentration of 2 μM to initiate the enzyme reaction. […] The samples were then kept at 4° C. overnight to complete protein precipitation and centrifuged for 15 min at 1800 g.

Test [2] deals with human whole blood. Nature of the test: Ex vivo assay testing inhibitory activity in human whole blood after stimulation with calcium ionophor (LTB4 by ELISA). In kind it is cell-based. To be noted: 0.5 h, Ionomycin 20 μM, 30 min at 37° C., read-out: hWBIC50.
Method: (2) Ex vivo assay testing inhibitory activity in human whole blood after stimulation with calcium ionophor.
Human blood was collected in heparin-containing Vacutainer tubes. […] Then 4 μl of a series of compound dilutions (in DMSO) were added, followed by a 15 min incubation at 37° C. with gentle shaking. After that, blood samples were stimulated by adding Ionomycin (Calbiochem) to a final concentration of 20 μM. After another incubation at 37° C. for 30 min, samples were centrifuged for 5 min at 1800 g and 4° C. Supernatants were taken and LTB4 concentrations were determined using a commercially available enzyme-linked immunosobentassay (R&D Systems, Minneapolis, Minn.) according to the manufacturer's instructions.
Test [3] deals with colitis symptoms. To be noted: eight weeks of treatment; cited from earlier work.

pIC50: −log10 of the molar value. Counter-ions that a name gives are not always drawn.

Regarding `O=C(O)CN1CCC[C@H]1COc1ccc(Cc2ccccc2)cc1` [Example 35, [(S)-2-(4-Benzyl-phenoxymethyl)-pyrrolidin-1-yl]-acetic acid TFA salt], the pIC50 in test [1] was 4.70 to 5.30.

For `Cc1ccc(Oc2ccc(OC[C@@H]3CCCN3CCCC(=O)O)cc2)cc1` [Example 37, 4-[(S)-2-(4-p-Tolyloxy-phenoxymethyl)-pyrrolidin-1-yl]-butylic acid HCl], the pIC50 in test [1] is more than 5.30.

On to `c1csc(-c2ccc(Cc3ccc(OC[C@@H]4CCCN4)cc3)cc2)c1` [Example 117, (S)-2-[4-(2-thiophen-benzyl)-phenoxymethyl]-pyrrolidine hydrogen chloride salt], for which the pIC50 in test [1] and in test [2] was more than 5.30 in each case.

Regarding `CN(CCCOc1ccc(Cc2ccccc2)cc1)CCC(=O)O.Cl` [SC57461], in test [3], the “colitis symptoms in a primate model” value is on record as “significantly improved colitis symptoms”.

(Values after US7402684B2, “Biaryl substituted heterocycle inhibitors of LTA4H for treating inflammation” (deCODE genectics ehf., priority 2005, dated 2008).)
